The data set can be described thus: Solubility in water. Type of data set: physicochemical.

The structures appear in SMILES notation. In brackets after ≈: the same amount, converted by molar mass.

The text below walks through data of patent US7906525B2, “Reduction of imiquimod impurities at four months using refined oleic acid” (priority 2004, dated 2011).

Take `CC(C)Cn1cnc2c(N)nc3ccccc3c21` [imiquimod, 1-(2-methylpropyl)-1H-imidazo[4,5-c]quinolin-4-amine]: the concentration in solution (solubility) was 0.79 µg/mL (≈ 3.29 µM).
